Results taken from BindingDB's records for doi:10.1016/j.bmcl.2010.07.082 (Ligand Pharmaceuticals, 2010).

Test: Antagonist activity at CCR1 in human THP1 cells assessed as inhibition of CCL3-induced chemotaxis after 3 hrs

Row | Structure (SMILES) | IC50
1 | Cc1nnc([C@H]2CCCN2C(=O)Nc2ccc(C(F)(F)F)cc2)n1Cc1ccc(Cl)cc1 [(R)-2-(4-(4-chlorobenzyl)-5-methyl-4H-1,2,4-triazol-3-yl)-N-(4-(trifluoromethyl)phenyl)pyrrolidine-1-carboxamide] | 2.9 nM
2 | O=C(Nc1ccc(C(F)(F)F)cc1)N1CCC[C@@H]1c1nnnn1Cc1ccc(Cl)cc1 [(R)-2-(1-(4-chlorobenzyl)-1H-tetrazol-5-yl)-N-(4-(trifluoromethyl)phenyl)pyrrolidine-1-carboxamide] | 6.5 nM
3 | O=C(Nc1ccc(C(F)(F)F)cc1)N1CCCC1c1nccn1Cc1ccc(Cl)cc1 (stereo not given) [2-(1-(4-chlorobenzyl)-1H-imidazol-2-yl)-N-(4-(trifluoromethyl)phenyl)pyrrolidine-1-carboxamide] | 16 nM
4 | O=C(Nc1ccc(C(F)(F)F)cc1)N1CCC[C@@H]1c1ncnn1Cc1ccc(Cl)cc1 [(R)-2-(1-(4-chlorobenzyl)-1H-1,2,4-triazol-5-yl)-N-(4-(trifluoromethyl)phenyl)pyrrolidine-1-carboxamide] | 22 nM
5 | O=C(Nc1ccc(C(F)(F)F)cc1)N1CCC[C@@H]1c1nncn1Cc1ccc(Cl)cc1 [(R)-2-(4-(4-chlorobenzyl)-4H-1,2,4-triazol-3-yl)-N-(4-(trifluoromethyl)phenyl)pyrrolidine-1-carboxamide] | 4 nM
